Data as given in patent US20240158392A1 (Janssen Biotech, Inc., priority 2021, published 2024).

Target: SIK2 (Homo sapiens, UniProt Q9H0K1)
Assay: SIK2 Enzymatic Assay High Version 2 (High ATP)
Format: biochemical
Conditions: not given
Experimental: All steps were performed at room temperature. Compounds were pre-plated onto an assay plate using an Echo acoustic dispenser (Labcyte, E550 or E555) at 80 nL per well. Enzyme prepared in assay buffer at 6 nM (2× final concentration) was added at 4 μL per well using the Multidrop Combi (Thermo Fisher—used for all additions in this assay) to the assay plate, spun for 1 min at 1000 rpm (Allegra 6KR Beckman Coulter centrifuge), and incubated with compound for 30 minutes. Assay buffer containing 6 mM ATP and 400 μM HDAC5tide (2× of final concentration for each substrate) was added at 4 μL per well to the assay plate and then spun as above and incubated for 2 hours. […] ADP-Glo Max Reagent (prepared and aliquoted as per manufacturer instructions) was then added at 8 μL per well, spun and incubated for 2 hours. ADP-Glo Max Detection (prepared and aliquoted as per manufacturer instructions) was added at 8 μL per well to the assay plate, which was spun and incubated for 1 hour. The plate is then read on the Pherastar (BMG Labtech) using a luminescence read. Gain is set between 2200-2500.

SIK2, sequence (Q9H0K1 whole entry, species assumed): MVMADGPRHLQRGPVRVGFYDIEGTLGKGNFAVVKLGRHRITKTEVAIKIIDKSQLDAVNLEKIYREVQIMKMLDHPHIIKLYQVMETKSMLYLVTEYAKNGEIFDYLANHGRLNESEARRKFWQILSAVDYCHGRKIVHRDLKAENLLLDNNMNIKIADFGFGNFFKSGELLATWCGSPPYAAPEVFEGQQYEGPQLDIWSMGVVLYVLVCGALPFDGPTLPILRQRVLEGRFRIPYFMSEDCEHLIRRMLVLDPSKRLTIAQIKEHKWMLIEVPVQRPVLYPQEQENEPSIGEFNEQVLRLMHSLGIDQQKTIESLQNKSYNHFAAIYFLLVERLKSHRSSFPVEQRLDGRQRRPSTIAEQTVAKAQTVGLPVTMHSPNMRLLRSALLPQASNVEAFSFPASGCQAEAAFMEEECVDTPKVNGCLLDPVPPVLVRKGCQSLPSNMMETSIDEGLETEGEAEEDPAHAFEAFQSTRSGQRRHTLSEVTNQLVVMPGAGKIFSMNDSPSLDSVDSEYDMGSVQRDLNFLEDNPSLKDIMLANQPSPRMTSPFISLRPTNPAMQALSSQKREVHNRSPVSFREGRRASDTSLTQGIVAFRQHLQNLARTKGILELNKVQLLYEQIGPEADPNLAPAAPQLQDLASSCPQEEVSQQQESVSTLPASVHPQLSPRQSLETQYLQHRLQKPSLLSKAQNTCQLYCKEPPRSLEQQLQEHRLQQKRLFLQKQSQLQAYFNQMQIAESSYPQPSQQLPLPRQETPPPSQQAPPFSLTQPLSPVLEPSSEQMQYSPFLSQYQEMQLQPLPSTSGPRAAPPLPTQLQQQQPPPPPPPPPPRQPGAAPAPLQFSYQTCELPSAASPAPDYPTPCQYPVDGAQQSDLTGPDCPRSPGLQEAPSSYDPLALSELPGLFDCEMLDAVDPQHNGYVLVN

Row | SMILES | IC50 [µM]
1 | Cc1cnc(Nc2cc3cc(-c4cc(C)ncc4O[C@@H]4[C@@H]5CO[C@H]4CN5)ccn3n2)cn1 [Example 528, 5-[2-methyl-5-[[(1S,4S,7R)-2-oxa-5-azabicyclo[2.2.1]heptan-7-yl]oxy]-4-pyridyl]-N-(5-methylpyrazin-2-yl)pyrazolo[1,5-a]pyridin-2-amine] | 0.0642
2 | Cc1cc(-c2ccn3nc(Nc4cccc(C(F)(F)F)n4)cc3c2)c(O[C@@H]2C[C@H]3COC[C@@H](C2)N3C)cn1 [Example 406, 5-[2-methyl-5-[[(1S,5R,7s)-9-methyl-3-oxa-9-azabicyclo[3.3.1]nonan-7-yl]oxy]-4-pyridyl]-N-[6-(trifluoromethyl)-2-pyridyl]pyrazolo[1,5-a]pyridin-2-amine] | 0.00183
3 | Cc1cc(-c2ccn3nc(Nc4ccc(C(=O)NC5CCOCC5)cn4)cc3c2)c(O[C@H]2C[C@H]3COC[C@@H](C2)N3)cn1 [Example 388, 6-[[5-[2-methyl-5-[[(1S,5R,7s)-3-oxa-9-azabicyclo[3.3.1]nonan-7-yl]oxy]-4-pyridyl]pyrazolo[1,5-a]pyridin-2-yl]amino]-N-tetrahydropyran-4-yl-pyridine-3-carboxamide] | 0.00103
4 | Cc1cc(-c2ccn3nc(Nc4cc(C)nc(C)n4)cc3c2)c(OCC2CCS(=O)(=O)N2)cn1 (racemic) [Example 353, (rac-)-N-(2,6-dimethylpyrimidin-4-yl)-5-[5-[(1,1-dioxo-1,2-thiazolidin-3-yl)methoxy]-2-methyl-4-pyridyl]pyrazolo[1,5-a]pyridin-2-amine] | 0.0451
5 | CCNC(=O)c1ccc(Nc2cc3cc(-c4cc(C)ncc4O[C@H]4C[C@H]5COC[C@@H](C4)N5)ccn3n2)nc1 [Example 384, N-ethyl-6-[[5-[2-methyl-5-[[(1S,5R,7s)-3-oxa-9-azabicyclo[3.3.1]nonan-7-yl]oxy]-4-pyridyl]pyrazolo[1,5-a]pyridin-2-yl]amino]pyridine-3-carboxamide] | 0.000889
6 | Cc1cc(-c2ccn3nc(Nc4cccnn4)cc3c2)c(O[C@H]2C[C@H]3COC[C@@H](C2)N3)cn1 [Example 394, 5-[2-methyl-5-[[(1R,5S,7s)-3-oxa-9-azabicyclo[3.3.1]nonan-7-yl]oxy]-4-pyridyl]-N-pyridazin-3-yl-pyrazolo[1,5-a]pyridin-2-amine] | < 0.000847

Same assay, conditions: enzyme 6 nM, 6 mM ATP and 400 μM HDAC5tide (each 2× final concentration); 30 minutes pre-incubation, 2 hours; ADP-Glo Max luminescence; read-out: SIK2 high ATP IC50 (μM) (Test Example 2)

Row | IC50 [µM] | SMILES
7 | 0.00686 | Cc1cc(-c2ccn3nc(Nc4cc(C)nc(C)n4)cc3c2)c(OC[C@@H](O)C2CC2)cn1 [Example 559, (1S)-1-cyclopropyl-2-[[4-[2-[(2,6-dimethylpyrimidin-4-yl)amino]pyrazolo[1,5-a]pyridin-5-yl]-6-methyl-3-pyridyl]oxy]ethanol]
8 | 0.0414 | COc1cc(-c2ccn3nc(Nc4cc(C)nc(C)n4)cc3c2)c(OC[C@H]2OCC[C@@H]2O)cn1 [Example 498, (2R,3S)-2-[[4-[2-[(2,6-dimethylpyrimidin-4-yl)amino]pyrazolo[1,5-a]pyridin-5-yl]-6-methoxy-3-pyridyl]oxymethyl]tetrahydrofuran-3-ol]
9 | < 0.000847 | CO[C@H]1CN(C)C[C@@H]1COc1cnc(C)cc1-c1ccn2nc(NC(=O)C3CC3)cc2c1 (single isomer, unassigned) [Example 461, Trans-*R, *R—N-[5-[5-[(4-methoxy-1-methyl-pyrrolidin-3-yl)methoxy]-2-methyl-4-pyridyl]pyrazolo[1,5-a]pyridin-2-yl]cyclopropanecarboxamide]
10 | < 0.000847 | CC#Cc1cc(-c2ccn3nc(NC(=O)C4CC4)cc3c2)c(OCC2(F)CNC2)cn1 [Example 434, N-[5-[5-[(3-fluoroazetidin-3-yl)methoxy]-2-prop-1-ynyl-4-pyridyl]pyrazolo[1,5-a]pyridin-2-yl]cyclopropanecarboxamide]
11 | 0.014 | Cc1cc(Nc2cc3cc(-c4cc(OCC(F)F)ncc4OCC(C)(C)C#N)ccn3n2)nn(C2CC2)c1=O [Example 737, 3-((4-(2-((1-cyclopropyl-5-methyl-6-oxo-1,6-dihydropyridazin-3-yl)amino)pyrazolo[1,5-a]pyridin-5-yl)-6-(2,2-difluoroethoxy)pyridin-3-yl)oxy)-2,2-dimethylpropanenitrile]
12 | 0.00251 | C[C@@H](C#N)Oc1cc(-c2ccn3nc(NC(=O)C4CC4)cc3c2)c(OCC(C)(C)C#N)cn1 (single isomer, unassigned) [Example 726, (*S)—N-[5-[2-(1-cyanoethoxy)-5-(2-cyano-2-methyl-propoxy)-4-pyridyl]pyrazolo[1,5-a]pyridin-2-yl]cyclopropanecarboxamide]
13 | 0.0279 | Cc1cc(C(=O)NCC(C)(C)O)cc(Nc2cc3cc(-c4cc(OC(F)F)ncc4OCC(C)(C)C#N)ccn3n2)n1 [Example 701, 2-[[5-[5-(2-cyano-2-methyl-propoxy)-2-(difluoromethoxy)-4-pyridyl]pyrazolo[1,5-a]pyridin-2-yl]amino]-N-(2-hydroxy-2-methyl-propyl)-6-methyl-pyridine-4-carboxamide]
14 | 0.00997 | Cc1cc(-c2ccn3nc(Nc4cc(C)nc(C)n4)cc3c2)c(OCCC(C)(C)O)cn1 [Example 555, 4-[[4-[2-[(2,6-dimethylpyrimidin-4-yl)amino]pyrazolo[1,5-a]pyridin-5-yl]-6-methyl-3-pyridyl]oxy]-2-methyl-butan-2-ol]
15 | 0.00766 | Cc1cc(-c2ccn3nc(Nc4ccc(C(F)(F)F)cn4)cc3c2)c(OC[C@@H]2CNCCO2)cn1 [Example 424, 5-[2-methyl-5-[[(2S)-morpholin-2-yl]methoxy]-4-pyridyl]-N-[5-(trifluoromethyl)-2-pyridyl]pyrazolo[1,5-a]pyridin-2-amine]
16 | 0.00681 | Cc1cc(-c2ccn3nc(Nc4cc(C)nc(C)n4)cc3c2)c(O[C@H]2CCS(=O)(=O)N(C)C2)cn1 (single isomer, unassigned) [Example 355, (*S)—N-(2,6-dimethylpyrimidin-4-yl)-5-[2-methyl-5-(2-methyl-1,1-dioxo-thiazinan-4-yl)oxy-4-pyridyl]pyrazolo[1,5-a]pyridin-2-amine]
17 | 0.0585 | Cc1cc(-c2ccn3nc(Nc4cc(C)nc(C)n4)cc3c2)c(OC[C@H]2COC(C)(C)C2)cn1 (single isomer, unassigned) [Example 540, (*S)—N-(2,6-dimethylpyrimidin-4-yl)-5-[5-[(5,5-dimethyltetrahydrofuran-3-yl)methoxy]-2-methyl-4-pyridyl]pyrazolo[1,5-a]pyridin-2-amine]
18 | 0.755 | CC(=O)N1CCO[C@H](COc2cnc(C)cc2-c2ccn3nc(Nc4cc(C)nc(C)n4)cc3c2)C1 [Example 628, 1-[(2S)-2-[[4-[2-[(2,6-dimethylpyrimidin-4-yl)amino]pyrazolo[1,5-a]pyridin-5-yl]-6-methyl-3-pyridyl]oxymethyl]morpholin-4-yl]ethanone]
19 | 0.0831 | CC#Cc1cc(-c2ccn3nc(Nc4cc(C)nc(C)n4)cc3c2)c(OCC(C)(C)C#N)cn1 [Example 670, 3-[[4-[2-[(2,6-dimethylpyrimidin-4-yl)amino]pyrazolo[1,5-a]pyridin-5-yl]-6-prop-1-ynyl-3-pyridyl]oxy]-2,2-dimethyl-propanenitrile]
20 | 0.04 | Cc1cc(-c2ccn3nc(NC(=O)C4CC4)cc3c2)c(OCC2(C)CCN2C)cn1 (single isomer, unassigned) [Example 450, (*S)—N-[5-[5-[(1,2-dimethylazetidin-2-yl)methoxy]-2-methyl-4-pyridyl]pyrazolo[1,5-a]pyridin-2-yl]cyclopropanecarboxamide]

More lines, now with the values behind:

Row | SMILES | IC50 [µM]
21 | Cc1cc(-c2ccn3nc(Nc4nn(C)c5ncccc45)cc3c2)c(OCC(C)(C)O)cn1 [Example 292, 2-methyl-1-[[6-methyl-4-[2-[(1-methylpyrazolo[3,4-b]pyridin-3-yl)amino]pyrazolo[1,5-a]pyridin-5-yl]-3-pyridyl]oxy]propan-2-ol] | 0.0187
22 | Cc1cc(-c2ccn3nc(NC(=O)C4CC4)cc3c2)c(OCC2(O)CCC(F)(F)CC2)cn1 (racemic) [Example 188, rac-N-[5-[5-[(4,4-difluoro-1-hydroxy-cyclohexyl)methoxy]-2-methyl-4-pyridyl]pyrazolo[1,5-a]pyridin-2-yl]cyclopropanecarboxamide] | 0.0478
23 | Cc1cc(-c2ccn3nc(Nc4cc(C)nc(C)n4)cc3c2)c(OCC2(C#N)COC2)cn1 [Example 275, 3-[[4-[2-[(2,6-dimethylpyrimidin-4-yl)amino]pyrazolo[1,5-a]pyridin-5-yl]-6-methyl-3-pyridyl]oxymethyl]oxetane-3-carbonitrile] | 0.0313
24 | Cc1cc(-c2ccn3nc(Nc4cc(C)c(C(=O)NC5CC5)c(C)n4)cc3c2)c(O[C@H]2CC[C@H](O)CC2)cn1 [Example 334, N-cyclopropyl-6-[[5-[5-(4-hydroxycyclohexoxy)-2-methyl-4-pyridyl]pyrazolo[1,5-a]pyridin-2-yl]amino]-2,4-dimethyl-pyridine-3-carboxamide] | 0.00301
25 | Cc1cc(-c2ccn3nc(NC(=O)C4CC4)cc3c2)c(O[C@@H]2CNC[C@@H]2F)cn1 [Example 279, N-[5-[5-[(3R,4S)-4-fluoropyrrolidin-3-yl]oxy-2-methyl-4-pyridyl]pyrazolo[1,5-a]pyridin-2-yl]cyclopropanecarboxamide] | 0.0032
26 | Cc1cc(-c2ccn3nc(Nc4cc(C)c(C(=O)NC5CC5)c(C)c4)cc3c2)c(OCC(C)(C)O)cn1 [Example 326, N-cyclopropyl-4-[[5-[5-(2-hydroxy-2-methyl-propoxy)-2-methyl-4-pyridyl]pyrazolo[1,5-a]pyridin-2-yl]amino]-2,6-dimethyl-benzamide] | 0.0362
